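Exposure lasted 48 hours, with cells grown in 96-well plates and compounds tested at five concentrations. TGI is the concentration that stops growth completely.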
Experiments:
Assay in all cases: NCI anticancer screen, dose series, 48 h
786-0 renal = tested on: 786-0 renal
A498 renal = tested on: A498 renal
A549 NSCLC = tested on: A549 NSCLC
ACHN renal = tested on: ACHN renal
CAKI-1 renal = tested on: CAKI-1 renal
CCRF-CEM leukemia = tested on: CCRF-CEM leukemia
COLO 205 colon = tested on: COLO 205 colon
DLD-1 colon = tested on: DLD-1 colon
DMS 114 small cell lung = tested on: DMS 114 small cell lung
DMS 273 small cell lung = tested on: DMS 273 small cell lung
EKVX NSCLC = tested on: EKVX NSCLC
HCC-2998 colon = tested on: HCC-2998 colon
HCT-116 colon = tested on: HCT-116 colon
HCT-15 colon = tested on: HCT-15 colon
HL-60(TB) leukemia = tested on: HL-60(TB) leukemia
HOP-18 NSCLC = tested on: HOP-18 NSCLC
HOP-62 NSCLC = tested on: HOP-62 NSCLC
HOP-92 NSCLC = tested on: HOP-92 NSCLC
HT29 colon = tested on: HT29 colon
IGROV1 ovarian = tested on: IGROV1 ovarian
K-562 leukemia = tested on: K-562 leukemia
KM12 colon = tested on: KM12 colon
KM20L2 colon = tested on: KM20L2 colon
LOX IMVI melanoma = tested on: LOX IMVI melanoma
LXFL 529 NSCLC = tested on: LXFL 529 NSCLC
M14 melanoma = tested on: M14 melanoma
M19-MEL melanoma = tested on: M19-MEL melanoma
MALME-3M melanoma = tested on: MALME-3M melanoma
MOLT-4 leukemia = tested on: MOLT-4 leukemia
NCI-H226 lung = tested on: NCI-H226 lung
NCI-H23 lung = tested on: NCI-H23 lung
NCI-H460 lung = tested on: NCI-H460 lung
NCI-H522 lung = tested on: NCI-H522 lung
OVCAR-3 ovarian = tested on: OVCAR-3 ovarian
OVCAR-4 ovarian = tested on: OVCAR-4 ovarian
OVCAR-5 ovarian = tested on: OVCAR-5 ovarian
OVCAR-8 ovarian = tested on: OVCAR-8 ovarian
RPMI-8226 leukemia = tested on: RPMI-8226 leukemia
SF-268 CNS = tested on: SF-268 CNS
SF-295 CNS = tested on: SF-295 CNS
SK-MEL-2 melanoma = tested on: SK-MEL-2 melanoma
SK-MEL-28 melanoma = tested on: SK-MEL-28 melanoma
SK-MEL-5 melanoma = tested on: SK-MEL-5 melanoma
SK-OV-3 ovarian = tested on: SK-OV-3 ovarian
SN12C renal = tested on: SN12C renal
SNB-19 CNS = tested on: SNB-19 CNS
SNB-75 CNS = tested on: SNB-75 CNS
SNB-78 CNS = tested on: SNB-78 CNS
SR leukemia = tested on: SR leukemia
SW-620 colon = tested on: SW-620 colon
TK-10 renal = tested on: TK-10 renal
U251 CNS = tested on: U251 CNS
UACC-257 melanoma = tested on: UACC-257 melanoma
UACC-62 melanoma = tested on: UACC-62 melanoma
UO-31 renal = tested on: UO-31 renal
XF 498 CNS = tested on: XF 498 CNS
RXF 393 renal = tested on: RXF 393 renal
SF-539 CNS = tested on: SF-539 CNS

CCC(O)C1Cc2c(C)cc3c(c2O1)C(=O)c1ccccc1C3=O (stereo unspecified)
TGI (786-0 renal): 62.7 µM
TGI (A498 renal): 70.3 µM
TGI (A549 NSCLC): > 100 µM
TGI (ACHN renal): > 100 µM
TGI (CAKI-1 renal): > 100 µM
TGI (CCRF-CEM leukemia): > 100 µM
TGI (COLO 205 colon): 33.1 µM
TGI (DLD-1 colon): > 100 µM
TGI (DMS 114 small cell lung): 97.7 µM
TGI (DMS 273 small cell lung): > 100 µM
TGI (EKVX NSCLC): > 100 µM
TGI (HCC-2998 colon): > 100 µM
TGI (HCT-116 colon): > 100 µM
TGI (HCT-15 colon): > 100 µM
TGI (HL-60(TB) leukemia): 51.7 µM
TGI (HOP-18 NSCLC): 73.6 µM
TGI (HOP-62 NSCLC): > 100 µM
TGI (HOP-92 NSCLC): 97.1 µM
TGI (HT29 colon): > 100 µM
TGI (IGROV1 ovarian): > 100 µM
TGI (K-562 leukemia): > 100 µM
TGI (KM12 colon): > 100 µM
TGI (KM20L2 colon): > 100 µM
TGI (LOX IMVI melanoma): 93.7 µM
TGI (LXFL 529 NSCLC): > 100 µM
TGI (M14 melanoma): > 100 µM
TGI (M19-MEL melanoma): > 100 µM
TGI (MALME-3M melanoma): 88.6 µM
TGI (MOLT-4 leukemia): > 100 µM
TGI (NCI-H226 lung): > 100 µM
TGI (NCI-H23 lung): > 100 µM
TGI (NCI-H460 lung): > 100 µM
TGI (NCI-H522 lung): 51.6 µM
TGI (OVCAR-3 ovarian): > 100 µM
TGI (OVCAR-4 ovarian): > 100 µM
TGI (OVCAR-5 ovarian): > 100 µM
TGI (OVCAR-8 ovarian): > 100 µM
TGI (RPMI-8226 leukemia): 68 µM
TGI (SF-268 CNS): > 100 µM
TGI (SF-295 CNS): 86.8 µM
TGI (SK-MEL-2 melanoma): > 100 µM
TGI (SK-MEL-28 melanoma): > 100 µM
TGI (SK-MEL-5 melanoma): > 100 µM
TGI (SK-OV-3 ovarian): 89.4 µM
TGI (SN12C renal): > 100 µM
TGI (SNB-19 CNS): > 100 µM
TGI (SNB-75 CNS): > 100 µM
TGI (SNB-78 CNS): 90.6 µM
TGI (SR leukemia): > 100 µM
TGI (SW-620 colon): > 100 µM
TGI (TK-10 renal): > 100 µM
TGI (U251 CNS): > 100 µM
TGI (UACC-257 melanoma): > 100 µM
TGI (UACC-62 melanoma): > 100 µM
TGI (UO-31 renal): 61.2 µM
TGI (XF 498 CNS): 58.9 µM

Cc1nc(N2N=C(c3ccc(Cl)cc3)CCC2=O)sc1[N+](=O)[O-]
TGI (786-0 renal): > 100 µM
TGI (A549 NSCLC): > 100 µM
TGI (ACHN renal): > 100 µM
TGI (CAKI-1 renal): > 100 µM
TGI (CCRF-CEM leukemia): > 100 µM
TGI (COLO 205 colon): > 100 µM
TGI (DLD-1 colon): > 100 µM
TGI (DMS 114 small cell lung): > 100 µM
TGI (DMS 273 small cell lung): > 100 µM
TGI (EKVX NSCLC): > 100 µM
TGI (HCC-2998 colon): > 100 µM
TGI (HCT-116 colon): > 100 µM
TGI (HCT-15 colon): > 100 µM
TGI (HL-60(TB) leukemia): > 100 µM
TGI (HOP-18 NSCLC): > 100 µM
TGI (HOP-62 NSCLC): > 100 µM
TGI (HT29 colon): > 100 µM
TGI (IGROV1 ovarian): > 100 µM
TGI (K-562 leukemia): > 100 µM
TGI (KM12 colon): > 100 µM
TGI (KM20L2 colon): > 100 µM
TGI (LOX IMVI melanoma): > 100 µM
TGI (LXFL 529 NSCLC): > 100 µM
TGI (M14 melanoma): > 100 µM
TGI (M19-MEL melanoma): > 100 µM
TGI (MALME-3M melanoma): > 100 µM
TGI (MOLT-4 leukemia): > 100 µM
TGI (NCI-H226 lung): > 100 µM
TGI (NCI-H23 lung): > 100 µM
TGI (NCI-H460 lung): > 100 µM
TGI (NCI-H522 lung): > 100 µM
TGI (OVCAR-3 ovarian): > 100 µM
TGI (OVCAR-4 ovarian): > 100 µM
TGI (OVCAR-8 ovarian): > 100 µM
TGI (RPMI-8226 leukemia): > 100 µM
TGI (RXF 393 renal): > 100 µM
TGI (SF-268 CNS): > 100 µM
TGI (SF-295 CNS): > 100 µM
TGI (SF-539 CNS): > 100 µM
TGI (SK-MEL-2 melanoma): > 100 µM
TGI (SK-MEL-28 melanoma): > 100 µM
TGI (SK-MEL-5 melanoma): > 100 µM
TGI (SK-OV-3 ovarian): > 100 µM
TGI (SN12C renal): > 100 µM
TGI (SNB-19 CNS): > 100 µM
TGI (SNB-75 CNS): > 100 µM
TGI (SNB-78 CNS): > 100 µM
TGI (SR leukemia): > 100 µM
TGI (SW-620 colon): > 100 µM
TGI (TK-10 renal): > 100 µM
TGI (U251 CNS): > 100 µM
TGI (UACC-257 melanoma): > 100 µM
TGI (UACC-62 melanoma): > 100 µM
TGI (UO-31 renal): > 100 µM
TGI (XF 498 CNS): > 100 µM

From PubChem BioAssay (NCI)
